Results published in paper PMC4885039, “A Scorpion Defensin BmKDfsin4 Inhibits Hepatitis B Virus Replication in Vitro” (Toxins, 2016).
Residues, ends and D or L forms follow the SMILES beside them.

Experiments:
HepG2.2.15 cells = experiment: MTT cytotoxicity assay, HepG2.2.15; type: cell-based, human; settings: 48 h, 0 to 200 μM, five repetitions
Procedure: Cells were seeded in 96-well plates (10^4 cells per well) and cultured in DMEM containing 10% FBS in 5% CO2 at 37 °C for 12 h. Then, peptides were added to the medium in a serial of concentrations. The concentrations ranged from 0 to 200 μM. Five repetitions were set for each concentration. After 48 h of incubation, 20 μL of MTT solution (5 mg/mL in PBS buffer; Invitrogen, Foster, CA, USA) was added to the medium in each well, and the plate was incubated in 5% CO2 at 37 °C for 4 h. Then, the medium was replaced by 100 μL DMSO. To completely dissolve the precipitated crystal purple formazan, the plate was then gently shaken for 10 min at room temperature. The absorbance at a wavelength of 570 nm was measured using a microplate reader (BioTek, Winooski, VT, USA).

human erythrocytes = experiment: Hemolysis assay; type: cell-based; settings: 37 °C, 1 h, absorbance at 570 nm, 0 to 200 μM
Procedure: Erythrocytes were obtained from fresh human blood by centrifugation for 10 min at 1000× g. After washed by HEPES buffer for three times, erythrocytes were resuspended in normal saline and seeded in 96-well plates (10^7 cells per well). BmKDfsin4 was added in a serial of concentrations, 0.1% triton-X100 was used as positive control and normal saline was used as negative control. After incubated at 37 °C for 1 h, the supernatants were collected by centrifugation for 10 min at 1000× g. The absorbance of hemoglobin was measured at a wavelength of 570 nm.

HBsAg = experiment: Western blot of intracellular HBsAg in HepG2.2.15 cell lysates; type: cell-based, Hepatitis B virus; settings: 10 μM, HepG2.2.15 cell lysate
Procedure: (§1) Cells were resuspended with radioimmunoprecipitation (RIPA) assay buffer (50 mM Tris-HCl (pH 7.5), 150 mM sodium chloride, 1% Nonidet P40, and 0.5% sodium deoxycholate) with phenylmethylsulfonyl fluoride (PMSF) and incubated on ice for 30 min for fully lysis. Cell lysates were electrophoresed in sodium dodecyl sulfate-polyacrylamide (SDS) gels and transferred to nitrocellulose membranes (Millipore, Darmstadt, Germany). The antibodies used for probing were as follows: mouse monoclonal anti-HBsAg (1:200 dilution, Abcam, Cambridge, UK), rabbit polyclonal anti-HBV core (1:500 dilution, Dako-Cytomation, Carpinteria, CA, USA), mouse monoclonal anti-Hep B xAg (1:200 dilution, Santa Cruz Biotechnology, Dallas, TX, USA), mouse monoclonal anti-Hep B Pol (1:200 dilution, Santa Cruz Biotechnology, Dallas, TX, USA), and anti-β-actin (1:5000 dilution, Santa Cruz Biotechnology, Dallas, TX, USA) were used as primary antibodies, and the secondary antibodies were conjugated to horseradish peroxidase (HRP).

HBx protein = experiment: Western blot of intracellular HBx protein in HepG2.2.15 cell lysates; type: cell-based, Hepatitis B virus; settings: HepG2.2.15 cell lysate
Procedure: as §1

HBV core = experiment: Western blot of intracellular HBV core in HepG2.2.15 cell lysates; type: cell-based, Hepatitis B virus; settings: HepG2.2.15 cell lysate
Procedure: as §1

HBV RT = experiment: Western blot of intracellular HBV RT in HepG2.2.15 cell lysates; type: cell-based, Hepatitis B virus; settings: HepG2.2.15 cell lysate
Procedure: as §1

Compound: CC[C@H](C)[C@@H]1NC(=O)[C@H](CO)NC(=O)[C@H](CCC(N)=O)NC(=O)[C@@H]2CSSC[C@@H](C(=O)N[C@@H](Cc3ccc(O)cc3)C(=O)N[C@@H](CCCNC(=N)N)C(=O)O)NC(=O)[C@H](C(C)C)NC(=O)[C@@H]3CSSC[C@H](NC(=O)[C@H](CCC(N)=O)NC(=O)CNC(=O)[C@H](CCC(N)=O)NC(=O)[C@H](CC(N)=O)NC(=O)[C@H](Cc4ccccc4)NC(=O)[C@@H]4CCCN4C(=O)[C@@H](NC(=O)CNC(=O)[C@H](Cc4ccccc4)NC(=O)CN)CSSC[C@H](NC(=O)[C@H](Cc4ccc(O)cc4)NC(=O)CNC(=O)CNC(=O)[C@H](CCCNC(=N)N)NC(=O)[C@H](CCCNC(=N)N)NC(=O)[C@H](CCCNC(=N)N)NC1=O)C(=O)N[C@@H](CC(=O)O)C(=O)NCC(=O)N[C@@H](Cc1ccccc1)C(=O)N[C@@H](CC(C)C)C(=O)N[C@@H](CCCCN)C(=O)N[C@@H]([C@@H](C)O)C(=O)N[C@@H](CCCNC(=N)N)C(=O)N3)C(=O)N[C@@H](Cc1c[nH]cn1)C(=O)N[C@@H](CCCCN)C(=O)N[C@@H](Cc1c[nH]cn1)C(=O)N2 [BmKDfsin4] (HELM PEPTIDE1{G.F.G.C.P.F.N.Q.G.Q.C.H.K.H.C.Q.S.I.R.R.R.G.G.Y.C.D.G.F.L.K.T.R.C.V.C.Y.R}$PEPTIDE1,PEPTIDE1,4:R3-25:R3|PEPTIDE1,PEPTIDE1,11:R3-33:R3|PEPTIDE1,PEPTIDE1,15:R3-35:R3$$$V2.0; N-terminus and C-terminus assumed; bridges inferred)
- CC50 (50% cytotoxicity concentration), HepG2.2.15 (HepG2.2.15 cells): 167.82 µM
- HC50 (50% hemolysis concentration) (human erythrocytes): 66.85 µM
- intracellular HBsAg level (HBsAg): almost undetectable
- intracellular HBx protein level (HBx protein; 5 μM): only a slight band
- intracellular HBx protein level (HBx protein; 10 μM): totally undetectable
- inhibitory activity against intracellular HBV core (HBV core): significantly concentration-dependent inhibition
- inhibitory activity against intracellular HBV RT (HBV RT): significantly concentration-dependent inhibition
